For one data set, the system named is C2C12 cells. Description: C2C12 cell proliferation. Format: cell-based, mouse. Conditions: 3 and 5 days. Here is the method:
To investigate whether increased iron levels affect the balance between bone formation and bone resorption, mouse osteoblasts C2C12 and osteoclasts Raw 264.7 cells were cultured in the two distinct media. […] In other experiments, the iron chelator deferoxamine (DFO), promoted alkaline phosphatase production, whereas ferritin diminished it. […] To further search how increased iron affect osteoblasts, C2C12 cells were grown in the presence of E2 or iron over a period of 3 and 5 days. Cell proliferation was then measured.

In the next data set the test system is MCF-7 cells. The data set is described as follows: VEGF formation in MCF-7 cell cultures. Format: cell-based. Conditions: 24-hr treatment. The source says: Due to the deficit of appropriate animal models that recapitulate estrogen and iron conditions in vivo, and the inherent difficulty of eliminating confounding variables with study in human subjects, applicants developed two cell culture models to test whether increase in body iron contributes to menopausal symptoms and diseases (FIG. 4). The concentration of 17β-estradiol (E2) were set at levels equivalent to breast tissue levels under pre-menopausal conditions (Parl F. F., “Estrogens, Estrogen Receptor and Breast Cancer,” Oxford: IOS Press, (2000), which is hereby incorporated by reference in its entirety). Ferritin levels were equal to 10% serum, given that the physiological upper limit of serum ferritin is 200 ng/ml. Twenty ng/ml of ferritin was used in the culture media. Transferrin was added in its wholly unsaturated form (apo-transferrin), or its fully 100% iron saturated (holo-transferrin), at 5 μg/ml, to the pre- and post-menopausal conditions, respectively. Serum-free alpha minimum essential medium (α-MEM) was used as the base medium for breast cancer MCF-7 cells, osteoblast progenitor C2C12 cells, and osteoclast progenitor Raw 264.7 cells. MCF-7 was supplemented with selenium (5 ng/ml) and insulin (5 μg/ml). C2C12 and Raw 264.7 cells were supplemented with bone morphorgenetic protein-2 (BMP-2) and receptor activator of nuclear factor kappa B ligand (RANKL) to stimulate their differentiation and maturation to ostoeblasts and osteoclasts, respectively. Epilife® basal medium was used for the culture of primary normal human epidermal keratinocytes (NHEK) cells.
E2, transferrin, and ferritin were analyzed separately in MCF-7 cell cultures to determine their relative contribution to alterations in VEGF levels.

Data set [1] relates to mouse osteoblast C2C12 cells. The data set is described as follows: Alkaline phosphatase (osteoblast differentiation) in C2C12 cells. The class given is cell-based. Here is the method:
FIGS. 18A-F show differences in alkaline phosphates (ALP) activities in mouse osteoblast C2C12 cells grown in medium only (FIG. 18A), with bone morphorgenetic protein-2 (BMP-2) (FIG. 18B), under the pre-menopausal (FIG. 18C), post-menopausal (FIG. 18D), with ferritin (FIG. 18E), and with deferoxamine (DFO) (FIG. 18F). DFO, an iron chelator, (10 μM) or ferritin alone (20 ng/mL) was used in the presence of BMP-2 at 50 ng/ml.
Due to the deficit of appropriate animal models that recapitulate estrogen and iron conditions in vivo, and the inherent difficulty of eliminating confounding variables with study in human subjects, applicants developed two cell culture models to test whether increase in body iron contributes to menopausal symptoms and diseases (FIG. 4). The concentration of 17β-estradiol (E2) were set at levels equivalent to breast tissue levels under pre-menopausal conditions (Parl F. F., “Estrogens, Estrogen Receptor and Breast Cancer,” Oxford: IOS Press, (2000), which is hereby incorporated by reference in its entirety). Ferritin levels were equal to 10% serum, given that the physiological upper limit of serum ferritin is 200 ng/ml. […]
To investigate whether increased iron levels affect the balance between bone formation and bone resorption, mouse osteoblasts C2C12 and osteoclasts Raw 264.7 cells were cultured in the two distinct media. […] Cell proliferation was then measured.

For data set [2] the following is noted: mice, single 50 μg intraperitoneal injection, for 3 days; cited from earlier work.
For the next data set, the system named is CYP19A1. Description: CYP19A1 mRNA induction in MCF-12A cells. Conditions: ferritin at as little as 10 ng/ml. The class given is cell-based, human. The source says: (§1) It was also investigated whether increased iron as a result of menopause affects estrogen metabolisms. It is known that 95% of serum E2 in premenopausal women is derived from ovarian secretion and subsequently distributed through the bloodstream in an endocrine fashion. Almost all of the circulating E2 in postmenopausal women is from extragonadal conversion of C19 steroid precursors, principally weak adrenal androgens (FIG. 26). The conversion occurs locally in tissues such as adipose and bone marrow and E2 acts in a paracrine fashion. […] The first step in the metabolism of estrogens is the hydroxylation catalyzed by cytochrome P450 enzymes such as CYP1A1 and CYP1B1, leading to the formation of 2-hydroxyl-E2 (2-OH-E2) and 4-OH-E2, respectively (Tsuchiya et al., “Cytochrome P450-mediated Metabolism of Estrogens and Its Regulation In Humans,” Cancer Leu 227, 115-24 (2005), which is hereby incorporated by reference in its entirety).

Another data set deals with CYP1B1. The data set is described as follows: CYP1B1 mRNA induction in MCF-12A cells. Conditions: ferritin at as little as 10 ng/ml. Format: cell-based, human.
Text: as §1

The next data set concerns CYP1A1. The data set is described as follows: CYP1A1 mRNA induction in MCF-12A cells. Format: cell-based, human. Particulars: ferritin at as little as 10 ng/ml.
Text: as §1

Data set [3] in a line: Effects of hepcidin on mice: serum iron and transferrin saturation after 8 weeks of i.p. treatment. The class given is in vivo. Conditions: 1.5 mg/kg i.p. twice a week for 8 weeks, versus control mice or mice treated with DFO. Here is the method: Human body has many ways to absorb, transfer, and store iron but has no effective ways to excrete it (Andrews N. C., “Disorders of Iron Metabolism,” N Engl J Med 341:1986-95 (1999), which is hereby incorporated by reference in its entirety). Menstruation, which can get rid of iron in young premenopausal women, is not optional in older postmenopausal women. Therefore, hepcidin and deferoxamine (DFO), a FDA-approved iron chelator, were tested to see whether hepcidin or DFO can inhibit iron absorption and decrease body iron levels. After overnight fasting, mice were injected intra-peritoneally (i.p.), twice a week, with hepcidin at 1.5 mg/kg, DFO at 400 mg/kg, or saline (control) with 10 mice per group. After 8 weeks consecutive treatment, mice were sacrificed and blood were collected by heart puncture. Serum samples were used for measurements of serum iron and transferrin saturation.

`C[C@]12CC[C@@H]3c4ccc(O)cc4CC[C@H]3[C@@H]1CC[C@@H]2O` [E2, 17β-estradiol]: the cell proliferation entry in the data set on C2C12 cells is “did not increase”. Further, the VEGF formation entry in the data set with MCF-7 cells (various concentrations) is recorded as “some increase”. The “osteoblast differentiation, as measured by alkaline phosphates activity” value in data set [1] (C2C12 cells) is “slightly stimulated”.

As to “Asp-Thr-His-Phe-Pro-Ile-Cys-Ile-Phe-Cys-Cys-Gly-Cys-Cys-His-Arg-Ser-Lys-Cys-Gly-Met-Cys-Cys-Lys-Thr (DTHFPICIFCCGCCHRSKCGMCCKT; listed as Homo sapiens) [human hepcidin]”, in data set [2], the “fall in serum iron” value is on record as 70%.

“apo-transferrin: transferrin in its wholly unsaturated form, without iron in it”: in the data set with MCF-7 cells (various concentrations), the VEGF formation entry was “no effect”.

Consider ferritin, for which, in the data set on CYP19A1, the “CYP19A1 mRNA levels” value is listed as “not”. The VEGF formation result in the data set with MCF-7 cells (various concentrations) is listed as “significantly decreases”. In the data set with CYP1B1, the “CYP1B1 mRNA levels” value was “significantly increased”. In addition, the “CYP1A1 mRNA levels” value in the data set with CYP1A1 was “significantly increased”. In addition, in data set [1] (C2C12 cells with BMP-2 at 50 ng/ml, DFO 10 μM, ferritin 20 ng/mL), the alkaline phosphatase production result was “diminished”.

As for “hepcidin: peptide hormone, principal regulator of iron homeostasis; binds ferroportin (DTHFPICIFCCGCCHRSKCGMCCKT; listed as Homo sapiens)”, in data set [3], the “levels of serum iron” value is “significantly lower” and the transferrin saturation result is “significantly lower”.

For the molecule “transferrin: iron transport protein with two binding sites for iron, tested at different iron saturation”, in the data set with MCF-7 cells (transferrin 5 μg/ml at various iron saturation levels), the VEGF formation result is “no effect”.

These data come from patent publication US8999935B2, “Treatment of osteoporosis in peri- and post-menopausal women with hepcidin” (New York University, priority 2009, dated 2015).
